From PubChem BioAssay (NCI) come the findings set out here.

Where “and” joins values, the source holds several entries; their conditions need not be identical. Identical values can stand only once.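 Step 1: Grow cells in 96-well plates. Step 2: Expose to compound for 48 hours at 5 concentrations. Step 3: Interpolate endpoints linearly; if unreached, use highest concentration. Abbreviation: GI50, concentration required for 50% inhibition of growth. TGI is the concentration that stops growth completely.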

Holding throughout (assay): NCI-60 cell line screen, 48 h
For test [1], the system named is HS 578T breast.
Test [2] deals with HCT-15 colon.
In test [3] the test system is SW-620 colon.
The subject of test [4] is NCI-H226 lung.
For test [5], the system named is SN12C renal.
Test [6] has as its system U251 CNS.
In test [7] the test system is SNB-75 CNS.
Test [8] deals with NCI/ADR-RES ovarian.
Test [9] deals with OVCAR-8 ovarian.
The subject of test [10] is RXF 393 renal.

`CC[C@@]1(O)C(=O)OCc2c1cc1n(c2=O)Cc2cc3cc(O)ccc3nc2-1`: the TGI in [1] was 8.52 µM; in [2], 20.8 µM and 42.5 µM; in test [3] it was 22.9 µM and 3.78 µM; in [4], 0.0907 µM and 0.113 µM; in test [5] it was 1.48 µM and 3.54 µM; in test [6] it was 0.0327 µM. Moreover, the TGI in [7] is 0.206 µM and 0.107 µM; in [8], 0.225 µM and 0.109 µM; in [9] it was 2.47 µM and 0.477 µM; in test [10] it was 0.165 µM and 0.222 µM. Besides, the GI50 is 0.355 µM in test [2]; 0.0179 µM and < 0.0154 µM in [3]; 0.0162 µM and 0.0165 µM in [4]; 0.0311 µM in test [10].

As to `CC1(C)CCC2(C(=O)O)C(O)CC3(C)C(=CCC4C5(C)CCC(OC6OCC(O)C(O)C6OC6OCC(O)C(O)C6OC6OCC(O)C(OC7OC(CO)C(O)C(O)C7O)C6O)C(C)(C)C5CCC43C)C2C1` (centres undefined), the TGI was more than 100 µM in test [1]; more than 100 µM in test [2]; more than 100 µM in test [3]; more than 100 µM in test [4]; 76.5 µM in test [5]; more than 100 µM in test [6]. For the same compound, the TGI is 40.1 µM in [7], more than 100 µM in test [8], more than 100 µM in test [9] and 59.1 µM in test [10].

For the compound `CCN(CC)Cc1cc(Nc2ccnc3ccc(OC)cc23)ccc1O`, the GI50 in test [1] is 9.35 µM; in test [2], 3.56 µM; in test [3], 3.6 µM; in test [4], 4.15 µM; in test [5], 3.57 µM; in test [6], 4.46 µM. Besides, the GI50 is 4.88 µM in [7], 4.87 µM in test [8], 7.21 µM in test [9] and 2.79 µM in [10]. In addition, the TGI in [1] is 30.6 µM; in [2], 34 µM; in [3] it was 19.7 µM; in [4] it was 21.7 µM; in [5], 20.6 µM; in test [6] it was 17.9 µM. Further, the TGI in [7] is 18.8 µM; in test [8], 28.8 µM; in test [9], 34.5 µM; in test [10], 10.9 µM.

Consider `CN1CCN(CCCCCOc2cc(O)c3c(=O)cc(-c4ccccc4)oc3c2)CC1`, for which the GI50 in test [1] was 18.1 µM; in test [2], 1.79 µM; in test [3], 2.61 µM; in test [4], 22 µM; in test [5], 11.8 µM; in test [6], 1.98 µM. Also, the GI50 in test [7] is 30.5 µM; in test [8] it was 14.9 µM; in test [9] it was 15.7 µM; in test [10] it was 1.96 µM. Moreover, the TGI amounted to 51.9 µM in test [1]; 4.02 µM in [2]; 7.53 µM in test [3]; 46.4 µM in [4]; 27.6 µM in [5]; 4.86 µM in test [6]. Also, the TGI amounted to 54.9 µM in test [7], 54.4 µM in [8], 91.7 µM in [9] and 5.97 µM in test [10].

As to `O=C(O)C1CC[N-]CC1.O=C(O)C1CC[N-]CC1.[NH2-].[NH2-].[Pt+4]`, the GI50 in [1], in test [2], in [3], in test [4], in [5] and in test [6] was more than 100 µM throughout. Besides, the GI50 in [7], in test [8], in test [9] and in [10] was more than 100 µM in each case. Besides, the TGI in test [1], in [2], in test [3], in test [4], in [5] and in [6] was more than 100 µM throughout. Also, the TGI in test [7], in test [8], in test [9] and in [10] was more than 100 µM throughout.

In the case of `COc1cc(C2C=C(C)N=C3SC=C(C)N32)cc(OC)c1OC` (centres undefined), the GI50 in [1] was 2.95 µM; in [2] it was 0.246 µM; in test [3], 0.516 µM; in [4], 1.88 µM; in test [5] it was 2.23 µM; in [6] it was 0.671 µM. For the same compound, the GI50 in [7] is 4.3 µM; in test [8] it was 0.454 µM; in test [9], 0.342 µM; in [10], 1.49 µM. The TGI was 74.2 µM in test [1]; 0.822 µM in [2]; 9.43 µM in [3]; 5.81 µM in test [4]; 7.53 µM in test [5]; 2.79 µM in test [6]. Further, the TGI was 20.1 µM in [7], more than 100 µM in test [8], 10.1 µM in [9] and 3.14 µM in [10].

On to `COC(=O)COc1ccccc1/C=C1/N=C(c2ccccc2)N(c2c(C)n(C)n(-c3ccccc3)c2=O)C1=O`, for which the GI50 in [1], in test [2], in test [3], in test [4], in [5] and in test [6] was more than 100 µM each time. For the same compound, the GI50 in test [7], in [8], in test [9] and in [10] was more than 100 µM in each case. Besides, the TGI in [1], in test [2], in [3], in test [4], in test [5] and in [6] was more than 100 µM throughout. In addition, the TGI in test [7], in test [8], in [9] and in test [10] was more than 100 µM in each case.

Consider `O=C(NNC1=NS(=O)(=O)c2ccccc2N1c1ccccc1)c1cnccn1`, for which the GI50 in [1] is more than 100 µM; in [2] it was 52.2 µM; in test [3], more than 100 µM; in test [4] it was more than 100 µM; in test [5], more than 100 µM; in test [6] it was more than 100 µM. Further, the GI50 in [7], in [8], in test [9] and in test [10] was more than 100 µM throughout. In addition, the TGI in test [1], in [2], in test [3], in test [4], in [5] and in test [6] was more than 100 µM in each case. Also, the TGI in test [7], in test [8], in test [9] and in [10] was more than 100 µM each time.
